Here are results for 12 compounds from PubChem BioAssay (NCI).

Structures are written as SMILES.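 Test compounds were applied to cells in 96-well plates for 48 hours at 5 doses. Here, GI50 denotes the concentration required for 50% inhibition of growth. TGI denotes the concentration required for complete inhibition of growth.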

Some test systems named below: M14 melanoma; MCF7 breast; MOLT-4 leukemia; NCI/ADR-RES ovarian; OVCAR-8 ovarian; RPMI-8226 leukemia; SK-OV-3 ovarian; SN12C renal.
Experiment in all cases: inhibition of tumour cell growth, NCI panel, 48 h

On to `Cn1c(=O)c(Cc2ccccc2F)cc2cnc(NC3CCOCC3)nc21`, for which the GI50 in the test with M14 melanoma, with MCF7 breast, with MOLT-4 leukemia, in the test with NCI/ADR-RES ovarian, in the test on OVCAR-8 ovarian and with RPMI-8226 leukemia was above 25 µM throughout. In addition, the GI50 in the test on SK-OV-3 ovarian and with SN12C renal was above 25 µM each time. The TGI in the test on M14 melanoma, in the test on MCF7 breast, with MOLT-4 leukemia, in the test with NCI/ADR-RES ovarian, with OVCAR-8 ovarian and in the test with RPMI-8226 leukemia was above 25 µM each time. Moreover, the TGI with SK-OV-3 ovarian and in the test on SN12C renal was above 25 µM throughout.

Consider `CC/C=C\C[C@H]1C/C=C2/C(=O)C=C[C@@H]2C/C=C\CCCC(=O)O1`, for which the GI50 in the test with M14 melanoma is 0.599 µM; in the test with MCF7 breast, 0.395 µM; with MOLT-4 leukemia, 0.604 µM; in the test on NCI/ADR-RES ovarian, 0.405 µM; in the test with OVCAR-8 ovarian, 0.338 µM; in the test with RPMI-8226 leukemia it was 0.352 µM. Further, the GI50 is 3.99 µM in the test on SK-OV-3 ovarian and 0.986 µM with SN12C renal. Moreover, the TGI in the test on M14 melanoma is 3.7 µM; in the test with MCF7 breast, 8.06 µM; in the test with MOLT-4 leukemia, 5.21 µM; with NCI/ADR-RES ovarian, 7.32 µM; in the test with OVCAR-8 ovarian it was 10.7 µM; in the test on RPMI-8226 leukemia, 4.03 µM. Further, the values for the TGI in the test with SK-OV-3 ovarian and in the test with SN12C renal were 12.9 µM and 4.34 µM, respectively.

Turning to `COc1cc(NC(C)CCCN)c2nccc(C)c2c1` (centres undefined), the TGI in the test with M14 melanoma is 33.7 µM; with MCF7 breast, 33.2 µM; in the test with NCI/ADR-RES ovarian, above 100 µM; in the test with RPMI-8226 leukemia, 60.7 µM; in the test with SK-OV-3 ovarian, 58.5 µM; in the test on SN12C renal it was above 100 µM.

For the compound `O=C(O)C1C(Br)(c2ccccc2)C1(Br)c1ccccc1` (centres undefined), the TGI is above 100 µM in the test on M14 melanoma; above 100 µM in the test with MCF7 breast; above 100 µM in the test on MOLT-4 leukemia; above 100 µM with NCI/ADR-RES ovarian; 84.6 µM with OVCAR-8 ovarian; 74.1 µM in the test on RPMI-8226 leukemia. Also, the figures for the TGI in the test with SK-OV-3 ovarian and with SN12C renal were 81 µM and above 100 µM, respectively.

As to `CN(CCC#N)c1ccc(/C=C(\C#N)c2ccc(Br)cc2)cc1`, the GI50 in the test with MCF7 breast is 4.05 µM; in the test with OVCAR-8 ovarian it was above 100 µM; with SK-OV-3 ovarian, above 100 µM. Further, the TGI with MCF7 breast, in the test on OVCAR-8 ovarian and with SK-OV-3 ovarian was above 100 µM in each case.

In the case of `ClCc1cccc(Cn2cnc3nc(Cl)nc(Cl)c32)c1`, the GI50 in the test with M14 melanoma is 0.854 µM; in the test with MCF7 breast, 0.505 µM; in the test with MOLT-4 leukemia, 1.17 µM; in the test on OVCAR-8 ovarian it was 9.24 µM; in the test with RPMI-8226 leukemia, 1.72 µM; in the test with SK-OV-3 ovarian it was 8.41 µM. The TGI was found to be 2.28 µM in the test on M14 melanoma; 1.38 µM with MCF7 breast; 2.7 µM with MOLT-4 leukemia; 21.2 µM with OVCAR-8 ovarian; 4.15 µM with RPMI-8226 leukemia; 22 µM in the test with SK-OV-3 ovarian.

Turning to `COc1cc(C(=O)c2cc(C)c3[nH]c4ccc(C)cc4c3c2C)cc(OC)c1OC`, the GI50 in the test on M14 melanoma, with MCF7 breast, in the test with MOLT-4 leukemia, with NCI/ADR-RES ovarian, in the test on OVCAR-8 ovarian and in the test with RPMI-8226 leukemia was below 0.01 µM each time. Moreover, the GI50 in the test with SK-OV-3 ovarian was below 0.0307 µM; with SN12C renal, below 0.01 µM. Also, the TGI is above 100 µM in the test with M14 melanoma; above 100 µM in the test on MCF7 breast; above 100 µM in the test with MOLT-4 leukemia; above 32.9 µM in the test on NCI/ADR-RES ovarian; above 100 µM in the test with OVCAR-8 ovarian; above 100 µM in the test with RPMI-8226 leukemia. For the same compound, the TGI in the test on SK-OV-3 ovarian and with SN12C renal was above 100 µM throughout.

As for `CC1(C)[C@@H](OC(N)=O)[C@H]2O[C@H]2[C@]2(C=O)[C@H]3CC[C@]4(C)[C@@H](c5ccc(=O)oc5)[C@@H](Cl)C[C@]4(O)C3=CC[C@@H]12`, the GI50 in the test on M14 melanoma is 0.00639 µM; in the test on MCF7 breast it was 0.00724 µM; in the test with MOLT-4 leukemia it was 0.00365 µM; with NCI/ADR-RES ovarian, 0.00589 µM; in the test with OVCAR-8 ovarian, 0.00603 µM; in the test with RPMI-8226 leukemia, 0.00795 µM. In addition, the values for the GI50 with SK-OV-3 ovarian and in the test on SN12C renal were 0.007 µM and 0.0056 µM, respectively. The TGI was 0.0177 µM in the test with M14 melanoma; 0.0281 µM in the test with MCF7 breast; 0.0112 µM in the test with MOLT-4 leukemia; 0.0142 µM with NCI/ADR-RES ovarian; 0.015 µM in the test on OVCAR-8 ovarian; 0.034 µM in the test with RPMI-8226 leukemia. Besides, the TGI in the test with SK-OV-3 ovarian stood at 0.0203 µM; with SN12C renal it was 0.0173 µM.

On to `O=C1CSC(c2ccc(Cl)cc2Cl)N1c1ccc(F)cc1` (centres undefined), for which the GI50 in the test on M14 melanoma was 15.2 µM; in the test on MCF7 breast, 14 µM; in the test with MOLT-4 leukemia, 18.5 µM; in the test on NCI/ADR-RES ovarian it was 18.8 µM; in the test on OVCAR-8 ovarian it was 19 µM; in the test on RPMI-8226 leukemia, 19.5 µM. Also, the GI50 in the test on SN12C renal was 16.7 µM. Besides, the TGI with M14 melanoma came to 28.8 µM; in the test on MCF7 breast it was 27 µM; in the test with MOLT-4 leukemia it was 43.4 µM; in the test with NCI/ADR-RES ovarian, 35.5 µM; in the test with OVCAR-8 ovarian, 35.7 µM; in the test on RPMI-8226 leukemia it was 42.7 µM. Further, the TGI with SN12C renal turned out to be 30.6 µM.

Turning to `COc1c(CCl)cc(-c2cc(=O)c3ccccc3s2)cc1CCl`, the TGI is above 100 µM in the test on M14 melanoma; above 22.7 µM in the test on MCF7 breast; above 100 µM in the test on NCI/ADR-RES ovarian; above 100 µM in the test on OVCAR-8 ovarian; above 100 µM in the test with RPMI-8226 leukemia; above 60.2 µM with SK-OV-3 ovarian. The same compound yielded a TGI with SN12C renal above 100 µM.

As for `COc1cccc2c(=O)c3c(sc12)c(N1CCNCC1)nc1ccccc13`, the GI50 in the test with M14 melanoma is 1.86 µM; with MCF7 breast it was 1.57 µM; in the test with NCI/ADR-RES ovarian, 1.75 µM; in the test on OVCAR-8 ovarian, 2.43 µM; with RPMI-8226 leukemia, 2.39 µM; in the test with SN12C renal, 1.54 µM. The TGI in the test on M14 melanoma is 3.48 µM; in the test on MCF7 breast, 3.28 µM; with NCI/ADR-RES ovarian it was 3.45 µM; with OVCAR-8 ovarian, 6.5 µM; with RPMI-8226 leukemia, 5.8 µM; in the test on SN12C renal, 3.06 µM.

Regarding `C1CCC([PH+](C2CCCCC2)C2CCCCC2[PH+](C2CCCCC2)C2CCCCC2)CC1.O=C(C1[CH-]CCCC1)C1CCCC[N-]1.[Au]` (centres undefined), the GI50 in the test with M14 melanoma was 0.26 µM; in the test on NCI/ADR-RES ovarian it was 1.8 µM; in the test on OVCAR-8 ovarian, 0.245 µM; in the test with SK-OV-3 ovarian, 0.33 µM; with SN12C renal, 0.262 µM. Further, the TGI was 1.4 µM in the test on M14 melanoma; above 100 µM in the test with NCI/ADR-RES ovarian; above 100 µM in the test on OVCAR-8 ovarian; 1.4 µM with SK-OV-3 ovarian; 2.81 µM in the test on SN12C renal.
